Holding throughout (assay type): biochemical
The target of experiment [1] is T1, CIII2CIV2 supercomplex, subunit QcrB (QP site) (Mycolicibacterium smegmatis, UniProt I7FGS8+I7GD61).
T1 construct: purified CIII2CIV2 supercomplex with 3×FLAG tag at the C terminus of QcrB; with QcrA (Rieske subunit) within CIII2CIV2
Description: oxygen consumption (DMWH2:O2 oxidoreductase) inhibition of purified enzyme.

Experiment [2] deals with T1, CIII2CIV2 supercomplex, subunit QcrB (QP site). Nature of the experiment: Clark-type electrode oxygen consumption, purified enzyme.
The target is the same in experiment [3]. Description: Clark-type electrode oxygen consumption, purified enzyme turnover ([…] substrate).

In the case of `CCc1nc2ccc(Cl)cn2c1C(=O)NCc1ccc(N2CCC(c3ccc(OC(F)(F)F)cc3)CC2)cc1` [telacebec], the midpoint of inhibition in experiment [1], the IC50, lay at 53 ± 19 nM.
With `Cc1cc(O)c2ccccc2c1O` [menadiol, 2-methyl-[1,4]naphthohydroquinone], the “Clark-type electrode oxygen consumption, purified enzyme” value in experiment [2] is recorded as “CIII2CIV2 activity is greater with DMWH2 green curve, than with menadiol brown curve”.
With `Cc1c(C)c(O)c2ccccc2c1O` [DMWH2, 2,3-dimethyl-[1,4]naphthohydroquinone], the “Clark-type electrode oxygen consumption, purified enzyme turnover (100 μM substr)” value in experiment [3] is on record as 91 ± 4 e^-/s.

Source of the values: article PMC8523172, “Structure of mycobacterial CIII2CIV2 respiratory supercomplex bound to the tuberculosis drug candidate telacebec (Q203)” (eLife, 2021).
